The text below walks through data of ChEMBL document CHEMBL1914283, “Synthesis and evaluation of pyridazinone-phenethylamine derivatives as selective and orally bioavailable histamine H3 receptor antagonists with robust wake-promoting activity” (Bioorg Med Chem Lett, 2011).

Molecules are shown by their SMILES. Activity calls are given as the source filed them. The rule behind the calls is not given here.

Series [1] has as its target T1, Histamine H3 receptor (Homo sapiens, UniProt Q9Y5N1). As to the kind of experiment: Displacement of [3H]NAMH from human H3R expressed in CHO cells. Format: cell-based.
Target sequence in this assay (Q9Y5N1 whole entry): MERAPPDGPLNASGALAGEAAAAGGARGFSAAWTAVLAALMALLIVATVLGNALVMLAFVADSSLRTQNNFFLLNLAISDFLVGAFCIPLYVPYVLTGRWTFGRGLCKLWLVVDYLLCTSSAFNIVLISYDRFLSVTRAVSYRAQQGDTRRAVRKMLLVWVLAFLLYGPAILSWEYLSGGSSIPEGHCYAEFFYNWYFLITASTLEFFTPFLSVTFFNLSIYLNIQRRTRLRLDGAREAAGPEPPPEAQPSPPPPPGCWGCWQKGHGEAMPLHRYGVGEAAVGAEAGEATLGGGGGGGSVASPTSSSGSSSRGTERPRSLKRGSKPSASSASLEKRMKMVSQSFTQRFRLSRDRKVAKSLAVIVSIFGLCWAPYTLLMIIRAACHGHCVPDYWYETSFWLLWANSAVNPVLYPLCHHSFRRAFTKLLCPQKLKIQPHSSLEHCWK
The target in series [2] is Histamine H3 receptor (Rattus norvegicus, UniProt Q9QYN8). Put plainly: Displacement of [3H]NAMH from rat H3R expressed in CHO cells. Format: cell-based.
Series [3] concerns the target T1, Histamine H3 receptor. As to the kind of experiment: Inverse agonist activity at human H3R expressed in CHO cells assessed as inhibition of R-alpha-methylhistamine-induced [35S]GTPgammaS binding. Format: functional, cell-based.
Target sequence in this assay (Q9Y5N1 whole entry): as above
The nature of series [4]: Metabolic stability in mouse liver microsomes assessed as half life. It counts as ADME, Microsome.
A short description of series [5]: Metabolic stability in rat liver microsomes assessed as half life. It counts as ADME, Microsome.
Series [6] in a line: Metabolic stability in dog liver microsomes assessed as half life. It counts as ADME, Canis lupus familiaris, Microsome.
Series [7] is described as follows: Metabolic stability in human liver microsomes assessed as half life. Format: ADME, Microsome.
In another series the target is T2, Cytochrome P450 1A2 (Homo sapiens, UniProt P05177).
T2 sequence (P05177 whole entry): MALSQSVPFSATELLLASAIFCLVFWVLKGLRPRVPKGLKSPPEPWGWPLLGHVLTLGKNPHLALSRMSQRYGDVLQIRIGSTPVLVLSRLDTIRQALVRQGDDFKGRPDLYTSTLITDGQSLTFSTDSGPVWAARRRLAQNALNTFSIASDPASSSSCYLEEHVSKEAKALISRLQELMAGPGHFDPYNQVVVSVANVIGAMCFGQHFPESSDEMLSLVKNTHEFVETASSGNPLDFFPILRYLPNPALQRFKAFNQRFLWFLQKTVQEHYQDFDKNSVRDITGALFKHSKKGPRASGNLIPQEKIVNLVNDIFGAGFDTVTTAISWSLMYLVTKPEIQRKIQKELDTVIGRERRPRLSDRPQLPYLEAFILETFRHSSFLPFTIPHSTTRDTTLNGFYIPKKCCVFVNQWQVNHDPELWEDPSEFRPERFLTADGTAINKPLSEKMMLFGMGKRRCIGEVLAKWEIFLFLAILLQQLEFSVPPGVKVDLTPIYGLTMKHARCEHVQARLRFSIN
As to the kind of experiment: Inhibition of CYP1A2. Format: ADME.

The target of the next series is Cytochrome P450 2C9 (Homo sapiens, UniProt P11712). Put plainly: Inhibition of CYP2C9. It counts as ADME.
Another series deals with Cytochrome P450 2C19 (Homo sapiens, UniProt P33261). Put plainly: Inhibition of CYP2C19. It counts as ADME.
A further series concerns the target Cytochrome P450 2D6 (Homo sapiens, UniProt P10635). As to the kind of experiment: Inhibition of CYP2D6. It counts as ADME.
The target of the next series is Cytochrome P450 3A4 (Homo sapiens, UniProt P08684). As to the kind of experiment: Inhibition of CYP3A4. Format: ADME.
The target of series [8] is Histamine H1 receptor (Homo sapiens) (UniProt P35367). As to the kind of experiment: Inhibition of human H1R at 10 uM.
The target of series [9] is Histamine H2 receptor (Homo sapiens) (UniProt P25021). As to the kind of experiment: Inhibition of human H2R at 10 uM.
Series [10] has as its target Histamine H4 receptor (Homo sapiens) (UniProt Q9H3N8). Put plainly: Inhibition of human H4R at 10 uM.
Series [11] is described as follows: AUC (0 to infinity) in rat at 1 mg/kg, iv. Format: ADME, organism-based. On the set-up: time infinity, dose 1 mg/kg, route intravenous. The following applies: plasma.
A short description of series [12]: Half life in rat at 1 mg/kg, iv. Format: ADME, organism-based. On the set-up: dose 1 mg/kg, route intravenous. The following applies: in vivo.
Series [13] is described as follows: Volume of distribution in rat at 1 mg/kg, iv. It counts as ADME, organism-based. Particulars: in vivo. Details: dose 1 mg/kg, route intravenous.
Series [14] is described as follows: Clearance in rat at 1 mg/kg, iv. It counts as ADME, organism-based. On the set-up: dose 1 mg/kg, route intravenous. The following applies: in vivo.
A short description of series [15]: AUC (0 to infinity) in rat at 5 mg/kg, po. Format: ADME, organism-based. Details: time infinity, dose 5 mg/kg, route oral. The following applies: plasma.
Series [16] can be described thus: Cmax in rat at 5 mg/kg, po. Details: dose 5 mg/kg, route oral. It counts as ADME, organism-based. The following applies: in vivo.
A short description of series [17]: Oral bioavailability in rat at 5 mg/kg. Particulars: in vivo. Format: ADME, organism-based.
Series [18] can be described thus: Ratio of drug level from brain to plasma of rat at 10 mg/kg, ip after 1 hr. Particulars: read-out: BPR. Format: ADME, organism-based. On the set-up: dose 10 mg/kg, route intraperitoneal.
A short description of series [19]: Aqueous solubility of the compound at pH 2. It counts as physicochemical. Particulars: buffer.
Series [20] is described as follows: Aqueous solubility of the compound at pH 7.4. It counts as physicochemical. The following applies: buffer.
Series [21] relates to Rattus norvegicus. Put plainly: Inhibition of R-alpha-methylhistamine-induced water intake in ip dosed rat dipsogenia model. Format: functional.
Series [22] has as its system Rattus norvegicus. Put plainly: Wake promoting activity in Sprague-Dawley rat EEG/EMG model assessed as cumulative wake time at 10 mg/kg, ip. Format: functional. Particulars: route intraperitoneal.
For series [23], the system named is Rattus norvegicus. Put plainly: Wake promoting activity in Sprague-Dawley rat EEG/EMG model assessed as increase in cumulative wake time at 30 mg/kg, ip up to 4 hrs. It counts as functional. The following applies: route intraperitoneal.
The test system of series [24] is Rattus norvegicus. As to the kind of experiment: Wake promoting activity in Sprague-Dawley rat EEG/EMG model assessed as increase in cumulative wake time at 30 mg/kg, ip up to 7.5 hrs. It counts as functional, organism-based. On the set-up: dose 30 mg/kg.
The subject of series [25] is Rattus norvegicus. Put plainly: Wake promoting activity in Sprague-Dawley rat EEG/EMG model assessed as sleep rebound at 3 to 30 mg/kg, ip up to 22 hrs. It counts as functional, organism-based.
The subject of series [26] is Rattus norvegicus. Put plainly: Toxicity in Sprague-Dawley rat EEG/EMG model assessed as EEG abnormality at 3 to 30 mg/kg, ip. It counts as organism-based. On the set-up: dose 3-30 mg/kg, route intraperitoneal. The following applies: in vivo.
The target of series [27] is T1, Histamine H3 receptor. Put plainly: Antagonist activity at human H3R expressed in CHO cells assessed as inhibition of R-alpha-methylhistamine-induced [35S]GTPgammaS binding. It counts as functional, cell-based.
Target sequence in this assay (Q9Y5N1 whole entry): as the sequence (Q9Y5N1 whole entry) above
The target in series [28] is T1, Histamine H3 receptor. As to the kind of experiment: Antagonist activity at human H3R expressed in CHO cells assessed as inhibition of R-alpha-methylhistamine-induced [35S]GTPgammaS binding.
Target sequence in this assay (Q9Y5N1 whole entry, looked up): as the sequence (Q9Y5N1 whole entry) above
Series [29] has as its system Rattus norvegicus. As to the kind of experiment: Wake promoting activity in ip dosed Sprague-Dawley rat EEG/EMG model assessed as cumulative wake time. It counts as functional, organism-based.
The subject of series [30] is Rattus norvegicus. Put plainly: Wake promoting activity in Sprague-Dawley rat EEG/EMG model assessed as increase in cumulative wake time at 30 mg/kg, ip up to 4.5 hrs. Format: functional, organism-based. On the set-up: dose 30 mg/kg.
Series [31] concerns Rattus norvegicus. As to the kind of experiment: Wake promoting activity in Sprague-Dawley rat EEG/EMG model assessed as cumulative wake time at 30 mg/kg, ip after 7 hrs. It counts as functional. Particulars: route intraperitoneal.
Series [32] concerns Rattus norvegicus. Put plainly: Wake promoting activity in Sprague-Dawley rat EEG/EMG model assessed as cumulative wake time at 30 mg/kg, ip. It counts as functional. The following applies: route intraperitoneal.
The subject of series [33] is Rattus norvegicus. Put plainly: Wake promoting activity in Sprague-Dawley rat EEG/EMG model assessed as sleep rebound at 3 to 30 mg/kg, ip. Format: functional, organism-based.
In series [34] the test system is Rattus norvegicus. Put plainly: Wake promoting activity in Sprague-Dawley rat EEG/EMG model assessed as increase in cumulative wake time at 30 mg/kg, ip relative to vehicle treated animals. It counts as functional. Particulars: route intraperitoneal.

Chain of Histamine H3 receptor (Rattus norvegicus, UniProt Q9QYN8) (Q9QYN8 whole entry): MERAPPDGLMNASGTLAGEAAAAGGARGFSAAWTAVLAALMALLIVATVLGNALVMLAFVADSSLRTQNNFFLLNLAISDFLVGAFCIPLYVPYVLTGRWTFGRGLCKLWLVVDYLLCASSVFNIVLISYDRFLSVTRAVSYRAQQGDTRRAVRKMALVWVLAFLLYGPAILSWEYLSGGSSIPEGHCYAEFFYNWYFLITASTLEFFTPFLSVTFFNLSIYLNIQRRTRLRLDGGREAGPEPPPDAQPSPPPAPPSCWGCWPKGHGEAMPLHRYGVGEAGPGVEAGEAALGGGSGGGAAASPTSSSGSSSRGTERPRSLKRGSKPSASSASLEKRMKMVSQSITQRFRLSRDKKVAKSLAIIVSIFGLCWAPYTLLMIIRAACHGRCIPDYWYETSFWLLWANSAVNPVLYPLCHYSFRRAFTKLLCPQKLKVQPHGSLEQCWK
Chain of Cytochrome P450 2C9 (P11712 whole entry): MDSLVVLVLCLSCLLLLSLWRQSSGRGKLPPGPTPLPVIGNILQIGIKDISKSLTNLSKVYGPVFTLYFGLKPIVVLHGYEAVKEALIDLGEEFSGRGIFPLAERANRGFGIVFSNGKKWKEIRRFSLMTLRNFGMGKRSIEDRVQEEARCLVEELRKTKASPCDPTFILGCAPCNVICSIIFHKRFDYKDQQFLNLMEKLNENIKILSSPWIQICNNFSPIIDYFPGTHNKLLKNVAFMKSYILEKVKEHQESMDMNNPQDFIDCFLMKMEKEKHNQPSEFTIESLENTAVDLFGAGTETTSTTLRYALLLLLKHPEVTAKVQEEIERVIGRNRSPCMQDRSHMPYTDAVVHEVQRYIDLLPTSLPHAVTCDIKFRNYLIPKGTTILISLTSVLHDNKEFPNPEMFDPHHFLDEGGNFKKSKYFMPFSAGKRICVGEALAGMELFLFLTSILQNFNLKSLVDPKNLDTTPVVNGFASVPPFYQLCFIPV
Chain of Histamine H4 receptor (Homo sapiens) (Q9H3N8 whole entry): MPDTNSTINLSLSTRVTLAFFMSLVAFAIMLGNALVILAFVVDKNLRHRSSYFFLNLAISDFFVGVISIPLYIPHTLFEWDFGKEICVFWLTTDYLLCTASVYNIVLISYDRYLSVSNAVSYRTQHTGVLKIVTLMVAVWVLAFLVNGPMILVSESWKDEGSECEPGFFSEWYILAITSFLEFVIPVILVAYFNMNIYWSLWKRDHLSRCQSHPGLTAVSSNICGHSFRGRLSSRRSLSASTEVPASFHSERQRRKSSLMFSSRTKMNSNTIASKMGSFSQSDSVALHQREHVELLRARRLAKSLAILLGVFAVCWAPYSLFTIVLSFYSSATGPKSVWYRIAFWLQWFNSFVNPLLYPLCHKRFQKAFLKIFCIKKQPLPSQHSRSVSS
Chain of Histamine H1 receptor (Homo sapiens) (P35367 whole entry): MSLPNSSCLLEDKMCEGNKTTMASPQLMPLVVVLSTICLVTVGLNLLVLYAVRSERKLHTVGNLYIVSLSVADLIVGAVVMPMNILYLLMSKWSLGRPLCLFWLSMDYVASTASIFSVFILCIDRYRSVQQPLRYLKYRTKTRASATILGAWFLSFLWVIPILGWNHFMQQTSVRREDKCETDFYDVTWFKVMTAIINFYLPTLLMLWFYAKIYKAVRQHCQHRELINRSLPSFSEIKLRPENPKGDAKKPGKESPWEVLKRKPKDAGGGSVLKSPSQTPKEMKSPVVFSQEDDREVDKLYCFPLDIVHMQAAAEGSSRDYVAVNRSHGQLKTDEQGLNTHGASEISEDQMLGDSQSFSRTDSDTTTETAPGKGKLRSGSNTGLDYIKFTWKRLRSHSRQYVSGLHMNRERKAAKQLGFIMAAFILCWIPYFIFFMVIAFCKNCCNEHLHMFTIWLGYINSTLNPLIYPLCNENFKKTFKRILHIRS
Chain of Cytochrome P450 2C19 (P33261 whole entry): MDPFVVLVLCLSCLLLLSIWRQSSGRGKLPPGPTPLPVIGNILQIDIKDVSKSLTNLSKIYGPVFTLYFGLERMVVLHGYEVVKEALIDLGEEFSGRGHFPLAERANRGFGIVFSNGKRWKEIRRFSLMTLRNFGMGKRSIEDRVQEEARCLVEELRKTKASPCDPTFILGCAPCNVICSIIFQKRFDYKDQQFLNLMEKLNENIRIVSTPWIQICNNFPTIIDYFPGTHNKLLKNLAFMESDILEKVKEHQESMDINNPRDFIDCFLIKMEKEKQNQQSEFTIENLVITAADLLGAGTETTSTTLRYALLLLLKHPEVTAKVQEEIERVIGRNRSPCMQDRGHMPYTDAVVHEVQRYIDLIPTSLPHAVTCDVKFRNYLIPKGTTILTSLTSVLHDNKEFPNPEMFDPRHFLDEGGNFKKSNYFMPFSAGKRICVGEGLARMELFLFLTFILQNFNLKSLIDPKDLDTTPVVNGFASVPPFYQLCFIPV
Chain of Cytochrome P450 2D6 (P10635 whole entry): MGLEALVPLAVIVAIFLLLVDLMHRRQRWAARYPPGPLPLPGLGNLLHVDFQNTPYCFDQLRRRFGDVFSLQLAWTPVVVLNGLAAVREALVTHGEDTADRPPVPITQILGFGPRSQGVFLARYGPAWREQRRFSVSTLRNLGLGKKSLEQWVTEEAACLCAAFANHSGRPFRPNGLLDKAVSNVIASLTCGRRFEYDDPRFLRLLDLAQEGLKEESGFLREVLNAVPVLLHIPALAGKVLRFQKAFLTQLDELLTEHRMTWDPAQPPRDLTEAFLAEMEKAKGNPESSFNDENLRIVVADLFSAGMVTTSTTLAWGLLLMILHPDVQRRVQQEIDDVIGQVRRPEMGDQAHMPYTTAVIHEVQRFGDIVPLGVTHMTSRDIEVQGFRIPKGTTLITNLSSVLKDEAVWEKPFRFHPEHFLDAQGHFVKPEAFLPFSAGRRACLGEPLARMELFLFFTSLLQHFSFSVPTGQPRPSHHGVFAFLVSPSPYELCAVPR
Chain of Cytochrome P450 3A4 (P08684 whole entry): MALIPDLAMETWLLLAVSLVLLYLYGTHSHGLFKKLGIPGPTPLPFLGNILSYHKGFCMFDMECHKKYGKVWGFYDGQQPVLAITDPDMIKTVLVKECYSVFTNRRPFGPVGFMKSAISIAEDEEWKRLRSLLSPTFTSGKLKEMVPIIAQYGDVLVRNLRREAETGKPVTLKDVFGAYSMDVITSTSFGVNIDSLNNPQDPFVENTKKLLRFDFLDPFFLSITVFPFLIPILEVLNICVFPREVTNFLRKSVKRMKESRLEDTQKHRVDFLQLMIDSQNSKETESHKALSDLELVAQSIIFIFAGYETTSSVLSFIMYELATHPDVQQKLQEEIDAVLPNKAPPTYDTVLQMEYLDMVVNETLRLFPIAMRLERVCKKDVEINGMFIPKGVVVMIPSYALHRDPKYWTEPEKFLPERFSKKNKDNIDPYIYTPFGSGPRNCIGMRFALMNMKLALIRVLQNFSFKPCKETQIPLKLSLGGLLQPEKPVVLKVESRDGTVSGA
Chain of Histamine H2 receptor (Homo sapiens) (P25021 whole entry): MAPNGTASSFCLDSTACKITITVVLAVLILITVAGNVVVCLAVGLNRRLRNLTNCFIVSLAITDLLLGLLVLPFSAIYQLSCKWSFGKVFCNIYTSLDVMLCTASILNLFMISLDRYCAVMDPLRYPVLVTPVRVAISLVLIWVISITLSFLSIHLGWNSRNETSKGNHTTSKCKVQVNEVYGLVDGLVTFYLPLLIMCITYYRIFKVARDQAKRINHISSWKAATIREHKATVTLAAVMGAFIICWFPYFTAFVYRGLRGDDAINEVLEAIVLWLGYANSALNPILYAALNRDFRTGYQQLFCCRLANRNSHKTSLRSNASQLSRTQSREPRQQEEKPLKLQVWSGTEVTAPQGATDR

`C[C@@H]1CCCN1CCc1ccc(-c2ccc(=O)n(-c3ccccn3)n2)cc1`: the Ki was found to be 47 nM at Histamine H3 receptor [1] and 242 nM on Histamine H3 receptor [2].

The molecule `C[C@@H]1CCCN1CCCOc1ccc(-c2ccc(=O)[nH]n2)cc1` [IRDABISANT] had a Ki at Histamine H3 receptor [2] of 7 nM.

`C[C@@H]1CCCN1CCc1ccc(-c2ccc(=O)n(Cc3ccccc3)n2)cc1`: the results for the Ki on Histamine H3 receptor [1] and at Histamine H3 receptor [2] were 5 nM and 18 nM, respectively.

As for `C[C@@H]1CCCN1CCc1ccc(-c2ccc(=O)n(-c3ccccc3)n2)cc1`, the figures for the Ki on Histamine H3 receptor [1] and at Histamine H3 receptor [2] were 34 nM and 42 nM, respectively.

With `Cn1nc(-c2ccc(CCN3CCCC3)cc2)ccc1=O`, the results for the Ki at Histamine H3 receptor [1] and at Histamine H3 receptor [2] were 83 nM and 135 nM, respectively.

Turning to `C[C@@H]1CCCN1CCc1ccc(-c2ccc(=O)[nH]n2)cc1`, the Ki at Histamine H3 receptor [1] turned out to be 31 nM; on Histamine H3 receptor [2] it was 43 nM.

Consider `C[C@@H]1CCCN1CCc1ccc(-c2ccc(=O)n(-c3ccc(F)cc3)n2)cc1`, for which the concentration giving a half-maximal response (EC50) on Histamine H3 receptor [3] worked out at 2.1 nM. Besides, the half-life in [4] was above 40 min; in [5] it was above 40 min; in series [6] it was above 40 min; in [7], above 40 min; in [12], 138 min. Further, the IC50 against Cytochrome P450 1A2, against Cytochrome P450 2C9, on Cytochrome P450 2C19, on Cytochrome P450 2D6 and against Cytochrome P450 3A4 was above 30000 nM each time. The inhibition is below 30% in [8], below 30% in series [9], below 30% in series [10] and “Dose-dependent effect” in the series on Rattus norvegicus [21]. In addition, the AUC(0-inf) turned out to be 1300 ng·h/mL in series [11] and 1730 ng·h/mL in series [15]. The molecule further had a Vd in series [13] of 4.8 L/kg. The same molecule gave a clearance in series [14] of 21 mL/min/kg. This molecule also yielded a Cmax in [16] of 255 ng/mL. Further, in series [17], the bioavailability was found to be 27%. In addition, in [18], the Kp at 1 h worked out at 11. The solubility in [19] and in series [20] was above 125 µg/mL in each case. The molecule also had an ED50 in the series with Rattus norvegicus [21] of 0.02 mg/kg. For the same molecule, the Time in the series on Rattus norvegicus [22] amounted to 207 min. Further, the Activity was 94% with Rattus norvegicus [23] and “Non-toxic” in the series with Rattus norvegicus [26]. In addition, the result with Rattus norvegicus [24], on Histamine H3 receptor [27] and at Histamine H3 receptor [28] was Active. Further, the result in the series with Rattus norvegicus [25] was inactive. The Ki on Histamine H3 receptor [1] is 13 nM; on Histamine H3 receptor [2] it was 48 nM.

As to `C[C@@H]1CCCN1CCc1ccc(-c2ccc(=O)n(C)n2)cc1`, on Histamine H3 receptor [3], the EC50 was 2 nM. Also, the half-life in series [4] was 25 min; in series [5], 39 min; in [6] it was above 40 min; in series [7] it was above 40 min; in series [12], 30 min. In addition, the IC50 against Cytochrome P450 1A2, against Cytochrome P450 2C9, against Cytochrome P450 2C19, at Cytochrome P450 2D6 and at Cytochrome P450 3A4 was above 30000 nM throughout. The inhibition in series [8] is below 30%; in series [9], below 30%; in series [10] it was below 30%; with Rattus norvegicus [21] it was “Dose-dependent effect”. Also, the AUC(0-inf) in series [11] turned out to be 1650 ng·h/mL; in series [15] it was 28 ng·h/mL. The same molecule registered a distribution volume (Vd) in series [13] of 0.6 L/kg. In series [14], this molecule showed a clearance of 12 mL/min/kg. In [16], this molecule yielded a Cmax of 18 ng/mL. This molecule also displayed a bioavailability in series [17] below 1%. The Kp at 1 h in [18] came to 6. This molecule also gave an ED50 in the series with Rattus norvegicus [21] of 0.07 mg/kg. Moreover, the Time entry was “Dose-dependent effect” in the series with Rattus norvegicus [29], 161 min with Rattus norvegicus [22], 200 min with Rattus norvegicus [31] and 235 min in the series with Rattus norvegicus [32]. Also, the outcome with Rattus norvegicus [30], on Histamine H3 receptor [27] and on Histamine H3 receptor [28] was Active. Further, the result in the series on Rattus norvegicus [33] was inactive. For the same molecule, the Activity is recorded as 98% in the series with Rattus norvegicus [23], 68% in the series on Rattus norvegicus [34] and “Non-toxic” in the series with Rattus norvegicus [26]. For the same molecule, the Ki at Histamine H3 receptor [1] turned out to be 7 nM; on Histamine H3 receptor [2], 58 nM.

Take `C[C@@H]1CCCN1CCc1ccc(-c2ccc(=O)n(-c3ccc(Cl)cc3)n2)cc1`: the Ki stood at 8 nM at Histamine H3 receptor [1] and 26 nM on Histamine H3 receptor [2].
